Measured values as given in patent publication US6753323B2, “Topical administration of amifostine and related compounds” (MedImmune Oncology, Inc., priority 1998, dated 2004).

What was measured:
bacteria, yeast and mold = assay: USP 23 Antimicrobial Preservatives-Effectiveness test, overall; type: cell-based; settings: each of the tested microorganisms, 28 day test
Protocol: WR-1065 was evaluated according to a protocol based on the “Antimicrobial Preservatives-Effectiveness” Test, outlined in the United States Pharmaeopeia, 23rd ed. (1995).
Prior to inoculation of the test article, a 1:10 dilution is prepared in diluent and 1.0 mL is plated. Additional serial dilutions are prepared and plated as necessary. Two separate sets are prepared as above. One set is prepared for bacteria counts, and one set is prepared for yeast/mold counts.
Enumeration of viable bacterial and fungal populations in the inoculated test article is conducted at 7, 14, 21 and 28 days post inoculation. At each time interval, a 1.0 g (or mL) specimen is removed from each inoculated specimen and plate counts are obtained by preparing serial dilutions in 9 mL tubes of diluent and plating aliquots from each dilution. Following incubation, plates are observed and the CFU's are enumerated. The number obtained is multiplied by the dilution factor to give the number of viable organisms per g (or mL) of test article at each time interval. At each time interval, the inoculated product is examined and any changes observed in the appearance of the test article during the challenge period are recorded. […]

hair matrix cells = settings: topical 0.3 mg in 0.2 mL Ringer's solution on depilated mouse skin before fractionated irradiation; cited from earlier work
[1] = Solubility of WR-1065 salts in various solvents; type: physicochemical; settings: Water
Protocol: As mentioned above, salts of amifostine and related compounds are included within the scope of the invention. […] Several salts of WR-1065 were prepared, and their solubility in various solvents was measured.

SMILES | preservative efficacy according to USP 23 criteria (bacteria, yeast and mold) | protection of hair matrix cells from radiation-induced injury (hair matrix cells) | Est. Solubitity HPLC Assay ([1]; as salt) [mg/mL] | Est. Solubitity HPLC Assay ([1]; expressed as free base) [mg/mL]
NCCCNCCS [WR-1065, S-2-(3-aminopropylamino) ethanethiol] | effective preservative | some effectiveness | – | –
Cl.Cl.NCCCNCCS [di-HCl] | – | – | 849 | 550
